Laboratory results from ChEMBL document CHEMBL5727340, “Substituted nucleoside derivatives useful as anticancer agents” (2019).

Assay: PRMT5 assay: Compounds were solubilized in DMSO and serially diluted, using 3-fold dilutions, into 100% DMSO at a concentration 50-fold greater than the desired assay concentration. Following dilution, 1 ul was added to an empty 96-well microtiter plate. PRMT5/MEP50 protein complex was combined with H4(1-21) peptide ([…]) in PRMT5 assay buffer (50 mM Tris pH 8.5, 50 mM NaCl, 5 mM MgCl2, 1 mM EDTA, 1 mM TCEP) and 44 ul was added to the microtiter plate containing compound. S-Adenosyl-L-methionine (SAM) was prepared by combining 3H labelled SAM with unlabelled SAM in PRMT5 assay buffer such that the final SAM concentration was 10 uM and the specific activity was 0.2 uCi/ul. The reaction was initiated by adding 5 ul of SAM stock to the microtiter plate. The final reaction conditions were 10 nM PRMT5/MEP50 complex, 200 nM peptide and 1 uM SAM. Following a 25 minute incubation at room temperature, the reaction was stopped with the addition of 100 uL of 20% TCA. The 3H-peptide product was captured using a 96-well filter plate (MSIPN4B, Millipore) and washed 5 times with PBS buffer. Scintillation fluid (100 ul) was added to the dried filter plate and counted in a liquid scintillation counter. IC50 values were determined by fitting the data to the standard 4-parameter dose response equation using Pfizer proprietary software.

Row | Compound | IC50 [nM]
1 | Cc1ncnc2c1ccn2[C@@H]1O[C@@H](C(C)O)[C@H]2OC(C)(C)O[C@H]21 (some centres undefined) | 1730
2 | Cc1ncnc2c1ccn2[C@@H]1O[C@H]([C@H](O)c2ccc3ccn(C)c3c2)[C@@H](O)[C@H]1O | 10
3 | Cc1ncnc2c1ccn2[C@@H]1O[C@H]([C@@H](O)c2cccc(F)c2)[C@@H](O)[C@H]1O | 2640
4 | Cc1ncnc2c1ccn2[C@@H]1O[C@@H](C(C)(C)O)[C@H]2OC(C)(C)O[C@H]21 | 3240
